Measurements reported in patent US20150045328A1, “DISUBSTITUTED ARYL OXY DERIVATIVES AS SPHINGOSINE-1 PHOSPHATE RECEPTORS MODULATORS” (Allergan, Inc., priority 2013, published 2015).
pEC50: −log10 of the molar value.

target: T1, human S1P1 receptor (Homo sapiens, UniProt P21453); assay: GTP γ35S binding assay for S1P1 activity; format: biochemical; details: activity potency, S1P1 receptor from GTP γ35S binding; membranes of cells stably expressing the S1P1 receptor
T1 construct: expressed in transfected cells; membranes used
T1 sequence (P21453 whole entry): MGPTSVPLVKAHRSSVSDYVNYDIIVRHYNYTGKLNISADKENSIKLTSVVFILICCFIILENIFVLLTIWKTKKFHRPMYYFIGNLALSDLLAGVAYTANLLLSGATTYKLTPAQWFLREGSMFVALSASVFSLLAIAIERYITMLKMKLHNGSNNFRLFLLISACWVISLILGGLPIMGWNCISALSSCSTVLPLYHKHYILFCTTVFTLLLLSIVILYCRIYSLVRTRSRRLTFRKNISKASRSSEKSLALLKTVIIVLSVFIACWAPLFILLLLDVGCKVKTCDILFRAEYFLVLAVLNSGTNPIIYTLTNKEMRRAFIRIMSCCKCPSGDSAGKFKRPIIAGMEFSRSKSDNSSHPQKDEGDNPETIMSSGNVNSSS
Method: Compounds were synthesized and tested for S1P1 activity using the GTP γ^35S binding assay. These compounds may be assessed for their ability to activate or block activation of the human S1P1 receptor in cells stably expressing the S1P1 receptor.
GTP γ^35S binding was measured in the medium containing (mM) HEPES 25, pH 7.4, MgCl2 10, NaCl 100, dithiothreitol 0.5, digitonin 0.003%, 0.2 nM GTP γ^35S, and 5 μg membrane protein in a volume of 150 μl. Test compounds were included in the concentration range from 0.08 to 5,000 nM unless indicated otherwise. Membranes were incubated with 100 μM 5′-adenylylimidodiphosphate for 30 min, and subsequently with 10 μM GDP for 10 min on ice. Drug solutions and membrane were mixed, and then reactions were initiated by adding GTP γ^35S and continued for 30 min at 25° C. Reaction mixtures were filtered over Whatman GF/B filters under vacuum, and washed three times with 3 mL of ice-cold buffer (HEPES 25, pH7.4, MgCl2 10 and NaCl 100). Filters were dried and mixed with scintillant, and counted for ^35S activity using a β-counter. Agonist-induced GTP γ^35S binding was obtained by subtracting that in the absence of agonist. Binding data were analyzed using a non-linear regression method. In case of antagonist assay, the reaction mixture contained 10 nM […] in the presence of test antagonist at concentrations ranging from 0.08 to 5000 nM.

Q: `CCC(CCCOc1ccc(CNCCCP(=O)(O)O)cc1)Cc1ccc(C)c(C)c1` (centres unmarked) [Compound 6, {3-[(4-{[4-(3,4-Dimethylbenzyl)hexyl]oxy}benzyl)amino]propyl}phosphonic acid] was tested. Which pEC50 did it give?
A: 7.67

Q: How did the pEC50 turn out when `CCCC(CCCOc1ccc(CNCCCP(=O)(O)O)cc1Cl)Cc1ccc(C)c(C)c1` (centres unmarked) [Compound 27, {3-[(3-chloro-4-{[4-(3,4-dimethylbenzyl)heptyl]oxy}benzyl)amino]propyl}phosphonic acid] was run?
A: 7.96

Q: How did the pEC50 turn out when `CCCCC(CCCOc1ccc(CNCCC(=O)O)cc1C)Cc1ccc(C)c(C)c1` (centres unmarked) [Compound 14, 3-[(4-{[4-(3,4-Dimethylbenzyl)octyl]oxy}-3-methylbenzyl)amino]propanoic acid] was run?
A: 8.22

Q: With `CCCCC(CCCOc1c(F)cc(CNCCCP(=O)(O)O)cc1OC)Cc1ccc(C)c(C)c1` (centres unmarked) [Compound 19, {3-[(4-{[4-(3,4-dimethylbenzyl)octyl]oxy}-3-fluoro-5-methoxybenzyl)amino]propyl}phosphonic acid] as the compound, how does the pEC50 read?
A: 9.48

Q: With `CCCC(CCCOc1c(C)cc(CNCCC(=O)O)cc1C)Cc1ccc(C)c(C)c1` (centres unmarked) [Compound 30, 3-[(4-{[4-(3,4-Dimethylbenzyl)heptyl]oxy}-3,5-dimethylbenzyl)amino]propanoic acid] as the compound, how does the pEC50 read?
A: 7.57

Q: `CCCC(CCCOc1ccc(CNCCCP(=O)(O)O)cc1)Cc1ccc(C)c(C)c1` (centres unmarked) [Compound 4, {3-[(4-{[4-(3,4-Dimethylbenzyl)heptyl]oxy}benzyl)amino]propyl}phosphonic acid] was tested. Which pEC50 did it give?
A: 6.92

Q: How did the pEC50 turn out when `CCCC(CCCOc1ccc(CNCCC(=O)O)cc1Cl)Cc1ccc(C)c(C)c1` (centres unmarked) [Compound 28, 3-[(3-Chloro-4-{[4-(3,4-dimethylbenzyl)heptyl]oxy}benzyl)amino]propanoic acid] was run?
A: 7.27

Q: `CCCCC(CCCOc1ccc(CNCCCP(=O)(O)O)cc1)Cc1ccc(C)c(C)c1` (centres unmarked) [Compound 2, {3-[(4-{[4-(3,4-Dimethylbenzyl)octyl]oxy}benzyl)amino]propyl}phosphonic acid] was tested. Which pEC50 did it give?
A: 7.89

Q: How did the pEC50 turn out when `CCCCC(CCCOc1ccc(CNCCCP(=O)(O)O)cc1C)Cc1ccc(C)c(C)c1` (centres unmarked) [Compound 13, {3-[(4-{[4-(3,4-Dimethylbenzyl)octyl]oxy}-3-methylbenzyl)amino]propyl}phosphonic acid] was run?
A: 8.18

Q: With `CCCCCC(CCCOc1ccc(CNCCC(=O)O)cc1Cl)Cc1ccc(C)c(C)c1` (centres unmarked) [Compound 26, 3-[(3-Chloro-4-{[4-(3,4-dimethylbenzyl)nonyl]oxy}benzyl)amino]propanoic acid] as the compound, how does the pEC50 read?
A: 7.93

Q: With `CCCCC(CCCOc1ccc(CNCCCP(=O)(O)O)cc1Cl)Cc1ccc(C)c(C)c1` (centres unmarked) [Compound 17, {3-[(3-Chloro-4-{[4-(3,4-dimethylbenzyl)octyl]oxy}benzyl)amino]propyl}phosphonic acid] as the compound, how does the pEC50 read?
A: 8.87

Q: How did the pEC50 turn out when `CCCCC(CCCOc1ccc(CNCCCP(=O)(O)O)cc1Br)Cc1ccc(C)c(C)c1` (centres unmarked) [Compound 15, {3-[(3-Bromo-4-{[4-(3,4-dimethylbenzyl)octyl]oxy}benzyl)amino]propyl}phosphonic acid] was run?
A: 8.64

Q: With `CCCCCC(CCCOc1ccc(CNCCCP(=O)(O)O)cc1)Cc1ccc(C)c(C)c1` (centres unmarked) [Compound 1, {3-[(4-{[4-(3,4-Dimethylbenzyl)nonyl]oxy}benzyl)amino]propyl}phosphonic acid] as the compound, how does the pEC50 read?
A: 8.29

Q: How did the pEC50 turn out when `CCCCCC(CCCOc1c(C)cc(CNCCCP(=O)(O)O)cc1C)Cc1ccc(C)c(C)c1` (centres unmarked) [Compound 23, {3-[(4-{[4-(3,4-Dimethylbenzyl)nonyl]oxy}-3,5-dimethylbenzyl)amino]propyl}phosphonic acid] was run?
A: 7.92

Q: `CCCCC(CCCOc1c(C)cc(CNCCC(=O)O)cc1C)Cc1ccc(C)c(C)c1` (centres unmarked) [Compound 12, 3-[(4-{[4-(3,4-dimethylbenzyl)octyl]oxy}-3,5-dimethylbenzyl)amino]propanoic acid] was tested. Which pEC50 did it give?
A: 8.01

Q: `CCCCC(CCCOc1ccc(CNCCC(=O)O)cc1F)Cc1ccc(C)c(C)c1` (centres unmarked) [Compound 22, 3-[(4-{[4-(3,4-Dimethylbenzyl)octyl]oxy}-3-fluorobenzyl)amino]propanoic acid] was tested. Which pEC50 did it give?
A: 7.81

Q: `CCCC(CCCOc1ccc(CNCCC(=O)O)cc1)Cc1ccc(C)c(C)c1` (centres unmarked) [Compound 5, 3-[(4-{[4-(3,4-Dimethylbenzyl)heptyl]oxy}benzyl)amino]propanoic acid] was tested. Which pEC50 did it give?
A: 8.33

Q: `CCCCCC(CCCOc1ccc(CNCCC(=O)O)cc1)Cc1ccc(C)c(C)c1` (centres unmarked) [Compound 10, 3-[(4-{[4-(3,4-Dimethylbenzyl)nonyl]oxy}benzyl)amino]propanoic acid] was tested. Which pEC50 did it give?
A: 8.13

Q: How did the pEC50 turn out when `CCCCCC(CCCOc1ccc(CNCCCP(=O)(O)O)cc1Cl)Cc1ccc(C)c(C)c1` (centres unmarked) [Compound 25, {3-[(3-Chloro-4-{[4-(3,4-dimethylbenzyl)nonyl]oxy}benzyl)amino]propyl}phosphonic acid] was run?
A: 8.32

Q: With `CCCC(CCCOc1ccc(CNCCC(=O)O)cc1C)Cc1ccc(C)c(C)c1` (centres unmarked) [Compound 32, 3-[(4-{[4-(3,4-Dimethylbenzyl)heptyl]oxy}-3-methylbenzyl)amino]propanoic acid] as the compound, how does the pEC50 read?
A: 7.45

Q: `CCCCC(CCCOc1ccc(CNCCCP(=O)(O)O)cc1F)Cc1ccc(C)c(C)c1` (centres unmarked) [Compound 21, {3-[(4-{[4-(3,4-Dimethylbenzyl)octyl]oxy}-3-fluorobenzyl)amino]propyl}phosphonic acid] was tested. Which pEC50 did it give?
A: 8.63

Q: `CCCCC(CCCOc1ccc(CNCCC(=O)O)cc1)Cc1ccc(C)c(C)c1` (centres unmarked) [Compound 3, 3-[(4-{[4-(3,4-Dimethylbenzyl)octyl]oxy}benzyl)amino]propanoic acid] was tested. Which pEC50 did it give?
A: 8.30

Q: With `CCCCC(CCCOc1c(C)cc(CNCCCP(=O)(O)O)cc1C)Cc1ccc(C)c(C)c1` (centres unmarked) [Compound 11, {3-[(4-{[4-(3,4-Dimethylbenzyl)octyl]oxy}-3,5-dimethylbenzyl)amino]propyl}phosphonic acid] as the compound, how does the pEC50 read?
A: 7.72

Q: How did the pEC50 turn out when `CCCC(CCCOc1c(C)cc(CNCCCP(=O)(O)O)cc1C)Cc1ccc(C)c(C)c1` (centres unmarked) [Compound 29, {3-[(4-{[4-(3,4-Dimethylbenzyl)heptyl]oxy}-3,5-dimethylbenzyl)amino]propyl}phosphonic acid] was run?
A: 6.48

Q: How did the pEC50 turn out when `CCCCC(CCCOc1c(F)cc(CNCCC(=O)O)cc1OC)Cc1ccc(C)c(C)c1` (centres unmarked) [Compound 20, 3-[(4-{[4-(3,4-Dimethylbenzyl)octyl]oxy}-3-fluoro-5-methoxybenzyl)amino]propanoic acid] was run?
A: 8.57

Q: `CCCCC(CCCOc1ccc(CNCCC(=O)O)cc1Cl)Cc1ccc(C)c(C)c1` (centres unmarked) [Compound 18, 3-[(3-Chloro-4-{[4-(3,4-dimethylbenzyl)octyl]oxy}benzyl)amino]propanoic acid] was tested. Which pEC50 did it give?
A: 8.90

Q: With `CCCC(CCCOc1ccc(CNCCCP(=O)(O)O)cc1C)Cc1ccc(C)c(C)c1` (centres unmarked) [Compound 31, {3-[(4-{[4-(3,4-Dimethylbenzyl)heptyl]oxy}-3-methylbenzyl)amino]propyl}phosphonic acid] as the compound, how does the pEC50 read?
A: 8.10

Q: `CCC(CCCOc1ccc(CNCCC(=O)O)cc1)Cc1ccc(C)c(C)c1` (centres unmarked) [Compound 7, 3-[(4-{[4-(3,4-Dimethylbenzyl)hexyl]oxy}benzyl)amino]propanoic acid] was tested. Which pEC50 did it give?
A: 7.94

Q: With `CCCCC(CCCOc1ccc(CNCCC(=O)O)cc1Br)Cc1ccc(C)c(C)c1` (centres unmarked) [Compound 16, 3-[(3-Bromo-4-{[4-(3,4-dimethylbenzyl)octyl]oxy}benzyl)amino]propanoic acid] as the compound, how does the pEC50 read?
A: 8.38
